The NIST ThermoML archive (doi:10.1021/je700546r)
Several values for one entry are separate records, joined by “and”; a condition that tells them apart may be missing. Identical values can stand only once.

Experiment: molar heat capacity at saturation pressure
Conditions: Small (less than 1 g) adiabatic calorimetry

ON=C1CCCCC1 [cyclohexanone oxime]
Conditions | molar heat capacity
303.01 K, Crystal 1 | 192.59 J/K/mol
303.67 K, Crystal 1 | 191.89 J/K/mol
303.76 K, Crystal 1 | 191.84 J/K/mol
304.57 K, Crystal 1 | 191.66 J/K/mol
305.34 K, Crystal 1 | 191.58 J/K/mol
305.36 K, Crystal 1 | 191.49 J/K/mol
305.83 K, Crystal 1 | 191.51 J/K/mol
306.14 K, Crystal 1 | 191.69 J/K/mol
306.91 K, Crystal 1 | 191.81 J/K/mol
307.05 K, Crystal 1 | 191.78 J/K/mol
307.6 K, Crystal 1 | 191.89 J/K/mol
307.71 K, Crystal 1 | 191.96 J/K/mol
308.49 K, Crystal 1 | 192.2 J/K/mol
308.74 K, Crystal 1 | 192.41 J/K/mol
309.27 K, Crystal 1 | 192.53 J/K/mol
309.38 K, Crystal 1 | 192.47 J/K/mol
310.07 K, Crystal 1 | 192.72 J/K/mol
310.43 K, Crystal 1 | 193 J/K/mol
310.95 K, Crystal 1 | 193.22 J/K/mol
311.16 K, Crystal 1 | 193.22 J/K/mol
311.68 K, Crystal 1 | 193.28 J/K/mol
312.22 K, Crystal 1 | 193.77 J/K/mol
312.72 K, Crystal 1 | 193.93 J/K/mol
312.94 K, Crystal 1 | 194.04 J/K/mol
313.36 K, Crystal 1 | 194.05 J/K/mol
314.11 K, Crystal 1 | 194.56 J/K/mol
314.48 K, Crystal 1 | 194.7 J/K/mol
314.72 K, Crystal 1 | 194.7 J/K/mol
315.03 K, Crystal 1 | 194.86 J/K/mol
316 K, Crystal 1 | 195.45 J/K/mol
316.25 K, Crystal 1 | 195.55 J/K/mol
316.49 K, Crystal 1 | 195.61 J/K/mol
316.71 K, Crystal 1 | 195.66 J/K/mol
317.89 K, Crystal 1 | 196.42 J/K/mol
318.01 K, Crystal 1 | 196.38 J/K/mol
318.27 K, Crystal 1 | 196.48 J/K/mol
318.38 K, Crystal 1 | 196.46 J/K/mol
319.77 K, Crystal 1 | 197.45 J/K/mol and 197.36 J/K/mol
320.04 K, Crystal 1 | 197.43 J/K/mol
320.11 K, Crystal 1 | 197.4 J/K/mol
321.54 K, Crystal 1 | 198.27 J/K/mol
321.81 K, Crystal 1 | 198.43 J/K/mol
321.98 K, Crystal 1 | 198.37 J/K/mol
323.3 K, Crystal 1 | 199.26 J/K/mol
323.58 K, Crystal 1 | 199.58 J/K/mol
323.8 K, Crystal 1 | 199.44 J/K/mol
325.05 K, Crystal 1 | 200.28 J/K/mol
325.35 K, Crystal 1 | 200.52 J/K/mol
325.62 K, Crystal 1 | 200.47 J/K/mol
326.81 K, Crystal 1 | 201.27 J/K/mol
327.11 K, Crystal 1 | 201.48 J/K/mol
327.43 K, Crystal 1 | 201.55 J/K/mol
328.56 K, Crystal 1 | 202.22 J/K/mol
328.87 K, Crystal 1 | 202.64 J/K/mol
329.24 K, Crystal 1 | 202.56 J/K/mol
330.32 K, Crystal 1 | 203.27 J/K/mol
330.63 K, Crystal 1 | 203.71 J/K/mol
331.06 K, Crystal 1 | 203.58 J/K/mol
331.23 K, Crystal 1 | 203.73 J/K/mol
332.4 K, Crystal 1 | 204.63 J/K/mol
332.88 K, Crystal 1 | 204.71 J/K/mol
332.98 K, Crystal 1 | 204.75 J/K/mol
334.15 K, Crystal 1 | 205.6 J/K/mol
334.7 K, Crystal 1 | 205.74 J/K/mol
334.74 K, Crystal 1 | 205.77 J/K/mol
335.91 K, Crystal 1 | 206.77 J/K/mol
336.49 K, Crystal 1 | 206.75 J/K/mol
336.52 K, Crystal 1 | 206.77 J/K/mol
337.67 K, Crystal 1 | 207.8 J/K/mol
338.25 K, Crystal 1 | 207.78 J/K/mol
338.35 K, Crystal 1 | 207.86 J/K/mol
339.42 K, Crystal 1 | 208.77 J/K/mol
339.99 K, Crystal 1 | 208.85 J/K/mol
340.17 K, Crystal 1 | 209 J/K/mol
341.17 K, Crystal 1 | 209.83 J/K/mol
341.74 K, Crystal 1 | 209.95 J/K/mol
341.99 K, Crystal 1 | 210.15 J/K/mol
342.93 K, Crystal 1 | 210.86 J/K/mol
343.49 K, Crystal 1 | 210.94 J/K/mol
343.81 K, Crystal 1 | 211.29 J/K/mol
344.68 K, Crystal 1 | 212.1 J/K/mol
345.25 K, Crystal 1 | 212.02 J/K/mol
345.63 K, Crystal 1 | 212.36 J/K/mol
346.43 K, Crystal 1 | 213.18 J/K/mol
346.99 K, Crystal 1 | 213.12 J/K/mol
347.45 K, Crystal 1 | 213.43 J/K/mol
348.18 K, Crystal 1 | 214.14 J/K/mol
348.74 K, Crystal 1 | 214.13 J/K/mol
349.27 K, Crystal 1 | 214.58 J/K/mol
349.93 K, Crystal 1 | 215.3 J/K/mol
350.48 K, Crystal 1 | 215.24 J/K/mol
351.09 K, Crystal 1 | 215.74 J/K/mol
351.67 K, Crystal 1 | 216.38 J/K/mol
352.41 K, Crystal 1 | 216.96 J/K/mol
352.91 K, Crystal 1 | 217.26 J/K/mol
353.42 K, Crystal 1 | 217.49 J/K/mol
354.55 K, Crystal 1 | 219.52 J/K/mol
354.73 K, Crystal 1 | 219 J/K/mol
355.16 K, Crystal 1 | 218.64 J/K/mol
363.8 K, Liquid | 272.42 J/K/mol
364.48 K, Liquid | 272.66 J/K/mol
364.59 K, Liquid | 273 J/K/mol
365.34 K, Liquid | 273.22 J/K/mol
365.92 K, Liquid | 273.48 J/K/mol
366.16 K, Liquid | 273.91 J/K/mol
366.88 K, Liquid | 274.16 J/K/mol
367.36 K, Liquid | 274.33 J/K/mol
367.52 K, Liquid | 274.57 J/K/mol
367.73 K, Liquid | 274.96 J/K/mol
368.42 K, Liquid | 275.12 J/K/mol
368.79 K, Liquid | 275.25 J/K/mol
368.96 K, Liquid | 275.31 J/K/mol
